# Measurements as given in US6894032B2, “Use of CDP-choline for the treatment of alcohol withdrawal syndrome” (Ferrer Internacional, S.A., priority 2000, dated 2005).
# How the values were obtained:
# [1] = tested on: patients with alcohol withdrawal syndrome; experiment: Open clinical study of CDP-choline in alcohol withdrawal syndrome; assay type: in vivo, humans
# Description: The progress of alcohol withdrawal syndrome was assessed in an open study conducted in 197 patients. CDP-choline was administered at doses of 500 mg/d i.m. or 600 mg/d p.o. for 60 days. […] At 60 days, 55.83% of patients had given up drinking alcohol and 31.97% of patients drank much less.
# [2] = tested on: patients with alcohol withdrawal syndrome; experiment: Open, randomized, comparative clinical study of CDP-choline in alcohol withdrawal syndrome versus clomethiazole and vitamin B; assay type: in vivo, humans; conditions: CDP-choline 500 mg i.m. every 12 h for 30 days, then 200 mg p.o. every 8 h, plus conventional therapy; versus conventional therapy alone; 20 patients per group; at 30 days
# Description: An open, randomized and comparative study on the conventional therapy of alcohol withdrawal syndrome was conducted in 40 patients. Patients were randomly distributed in two groups of 20. One of the groups was used as control and received clomethiazole and vitamin B1, B6 and B12. This treatment regimen was maintained for 8 days, and then patients were given diazepam until completion of treatment (60 days). The other group of patients received the same treatment regimen plus CDP-choline 500 mg i.m. every 12 h for the first 30 days and CDP-choline 200 mg p.o. every 8 h for the remaining 30 days.
# [3] = 197 patients, 500 mg/d i.m. or 600 mg/d p.o. for 60 days, at 60 days
structure (smiles),measurement,setting,value
"C[N+](C)(C)CCOP(=O)(O)OP(=O)([O-])OC[C@H]1O[C@@H](n2ccc(N)nc2=O)[C@H](O)[C@@H]1O [CDP-choline, cytidine diphosphate choline]","anxiety, tremor, disorientation, insomnia, dysarthria, tendency to suicide and neuritic pains",[1]; 500 mg/d i.m. or 600 mg/d p.o. for 60 days,significant improvement
same,patients who drank much less,[1]; [3],31.97%
same,patients who had given up drinking alcohol,[1]; [3],55.83%
same,assessments of progress of alcohol withdrawal syndrome,"[1]; at 30 and 60 days following treatment, p<0.001",significant differences
same,"tremor incidence (p<0.05), cramps (p<0.05), asthenia (p<0.05), emotional lability (p<0.01), nervousness (p<0.05) and social withdrawal (p<0.05)",[2],significant differences versus control
